Assay results: ChEMBL document CHEMBL1144262, “Identification of putative metabolites of docosahexaenoic acid as potent PPARgamma agonists and antidiabetic agents” (Bioorg Med Chem Lett, 2005)

What was measured:
[1] = In vivo triglyceride level was observed in db/db mouse 4 weeks after oral administration (once daily) of 100 mg/kg of compound; (n=6); assay type: ADME, organism-based; parameters: dose 100 mg/kg, route oral; details: 672 h
[2] = In vivo blood glucose level was observed in ZDF rats 2 weeks after oral administration (once daily) of 30 mg/kg of compound; (n=6); details: rat, 336 h
[3] = In vivo blood glucose level was observed in db/db mouse 4 weeks after oral administration (once daily) of 100 mg/kg of compound; (n=6); assay type: ADME, organism-based; parameters: dose 100 mg/kg, route oral; details: 672 h
[4] = In vivo body weight gain was observed in db/db mouse 4 weeks after oral administration (once daily) of 100 mg/kg of compound; (n=6); assay type: ADME, organism-based; parameters: dose 100 mg/kg, route oral; details: 672 h
[5] = In vivo triglyceride level was observed in ZDF rats 2 weeks after oral administration (once daily) of 30 mg/kg of compound; (n=6); details: rat, 336 h
[6] = In vivo body weight gain was observed in ZDF rats 2 weeks after oral administration (once daily) of 30 mg/kg of compound; (n=6); details: rat, 336 h

CCc1ccc(CCOc2ccc(CC3SC(=O)NC3=O)cc2)nc1 (stereo unspecified) [PIOGLITAZONE]
Triglyceride level [1]: 73 mg/dL | Glucose level [2]: 174 mg/dL | Glucose level [3]: 432 mg/dL | Activity [4]: 15.5 g | Triglyceride level [5]: 109 mg/dL | Activity [6]: 96.6 g
